Measurements published in ChEMBL document CHEMBL5257148, “Novel Tricyclic Compounds as KRAS Inhibitors for Treating Cancer” (ACS Med Chem Lett, 2023).
pIC50: −log10 of the molar value.

What was measured:
GTPase KRas [1] = biological target: T1, GTPase KRas (Homo sapiens, UniProt P01116, G12C); assay: Inhibition of KRAS G12C mutant (unknown origin) assessed as inhibition of SOS1 mediated nucleotide exchange incubated for 2 hrs in presence of GppNHp by fluorescence based analysis
GTPase KRas [2] = biological target: T1, GTPase KRas; assay: Inhibition of KRAS G12C mutant in human MIA PaCa-2 cells assessed as reduction in pERK level incubated for 4 hrs by HTRF assay; assay type: cell-based
GTPase KRas [3] = biological target: T1, GTPase KRas; assay: Inhibition of KRAS G12C mutant in human MIA PaCa-2 cells assessed as reduction in whole blood pERK level incubated for 4 hrs by HTRF assay; assay type: cell-based

Measured: pIC50

T1 sequence (P01116 whole entry G12C): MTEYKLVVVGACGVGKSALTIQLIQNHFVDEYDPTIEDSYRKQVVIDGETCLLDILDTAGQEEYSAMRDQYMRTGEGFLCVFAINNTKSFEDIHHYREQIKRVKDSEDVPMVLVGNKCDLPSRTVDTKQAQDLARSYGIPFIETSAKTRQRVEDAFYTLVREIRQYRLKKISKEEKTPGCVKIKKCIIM

COC/C=C/C(=O)N1CC[C@H](n2nnc3c(O[C@@H](C)[C@@H]4CCCN4C)nc4c(F)c(-c5nn(C)c6ccccc56)c(C)cc4c32)C[C@H]1CC#N
≥ 7.30: all assays above

C=C(F)C(=O)N1CC[C@H](n2nnc3c(O[C@@H](C)[C@@H]4CCCN4C)nc4c(F)c(-c5ncc(F)c6ccccc56)c(C)cc4c32)C[C@H]1CC#N
≥ 7.30: all assays above

Cc1cc2c(nc(O[C@@H](C)[C@@H]3CCCN3C)c3nnn([C@H]4CCN(C(=O)/C=C/CF)[C@H](CC#N)C4)c32)c(F)c1-c1ccc2cnn(C)c2c1
≥ 7.30: all assays above

COC/C=C/C(=O)N1CC[C@H](n2nnc3c(O[C@@H](C)[C@@H]4CCCN4C)nc4c(F)c(-c5ncc(F)c6ccccc56)c(C)cc4c32)C[C@H]1CC#N
≥ 7.30: all assays above

Cc1cccc(-c2c(C)cc3c(nc(N4CC(C)(N(C)C)C4)c4nnn([C@H]5CCN(C(=O)/C=C/CF)[C@H](CC#N)C5)c43)c2F)c1Cl
≥ 7.30: all assays above

COC/C=C/C(=O)N1CC[C@H](n2nnc3c(O[C@@H](C)[C@@H]4CCCN4C)nc4c(F)c(-c5ccc(F)cc5)c(C)cc4c32)C[C@H]1CC#N
≥ 7.30: all assays above
